# Measurements reported in patent US20230278972A1, “SUBSTITUTED HALOALKYL SULFONANILIDE HERBICIDES” (FMC Corporation, priority 2020, published 2023).
# Experiments:
# Format in all cases: in vivo
# [1] = system: blackgrass (Alopecurus myosuroides); assay: Test A postemergence, blackgrass; conditions: Postemergence, 0 to 100 scale (0 no effect, 100 complete control); for Blackgrass plant response rating: 500 g ai/ha, visual injury vs untreated controls after approx. 10 days
# How it was run: (§1)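 Greenhouse pot test in a loam–sand blend; compounds delivered in a non-phytotoxic solvent carrying a surfactant, applied either as a directed spray to soil at seeding or over seedlings 2 to 10 cm high with one to two leaves.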
# [2] = system: barnyardgrass (Echinochloa crus-galli); assay: Test A postemergence, barnyardgrass; conditions: Postemergence, 0 to 100 scale (0 no effect, 100 complete control); for Barnyardgrass plant response rating: 500 g ai/ha, visual injury vs untreated controls after approx. 10 days
# How it was run: (§2)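 Preemergence: seeded pots of loam plus sand received a directed soil spray. Postemergence: seedlings at one to two leaves, 2 to 10 cm high, were oversprayed. Each compound was formulated in a non-phytotoxic solvent mix that included a surfactant.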
# [3] = system: ragweed (common ragweed, Ambrosia artemisiifolia); assay: Test A postemergence, ragweed; conditions: Postemergence; for Ragweed plant response rating: 500 g ai/ha, visual injury vs untreated controls after approx. 10 days
# How it was run: as §1
# corn (Zea mays) = assay: Test A postemergence, corn; conditions: Postemergence; for Corn plant response rating: 500 g ai/ha, visual injury vs untreated controls after approx. 10 days
# How it was run: as §1
# [4] = system: pigweed (Amaranthus retroflexus); assay: Test A preemergence, pigweed; conditions: for Pigweed plant response rating: visual injury on 0 to 100 scale (0 no effect, 100 complete control), approximately 10 days; for Plant response rating, Pigweed: 0 to 100 scale (0 no effect, 100 complete control)
# How it was run: as §2
# [5] = system: Foxtail, Giant (giant foxtail, Setaria faberi); assay: Test A preemergence, Foxtail, Giant; conditions: Preemergence; for Foxtail, Giant plant response rating: visual injury on 0 to 100 scale (0 no effect, 100 complete control), approximately 10 days; for Plant response rating, Foxtail, Giant: 0 to 100 scale (0 no effect, 100 complete control)
# How it was run: as §1
# [6] = system: Foxtail, Giant (giant foxtail, Setaria faberi); assay: Test A postemergence, Foxtail, Giant; conditions: Postemergence; for Foxtail, Giant plant response rating: 500 g ai/ha, visual injury vs untreated controls after approx. 10 days
# How it was run: as §1
# [7] = system: barnyardgrass (Echinochloa crus-galli); assay: Test A preemergence, barnyardgrass; conditions: Preemergence; for Barnyardgrass plant response rating: visual injury on 0 to 100 scale (0 no effect, 100 complete control), approximately 10 days; for Plant response rating, Barnyardgrass: 0 to 100 scale (0 no effect, 100 complete control)
# How it was run: as §1
# kochia (Bassia scoparia) [8] = assay: Test A postemergence, kochia; conditions: Postemergence; for Kochia plant response rating: 500 g ai/ha, visual injury vs untreated controls after approx. 10 days
# How it was run: as §1
# kochia (Bassia scoparia) [9] = assay: Test A preemergence, kochia; conditions: Preemergence; for Kochia plant response rating: visual injury on 0 to 100 scale (0 no effect, 100 complete control), approximately 10 days; for Plant response rating, Kochia: 0 to 100 scale (0 no effect, 100 complete control)
# How it was run: as §1
# [10] = system: Ryegrass, Italian (Italian ryegrass, Lolium multiflorum); assay: Test A preemergence, Ryegrass, Italian; conditions: Preemergence; for Ryegrass, Italian plant response rating: visual injury on 0 to 100 scale (0 no effect, 100 complete control), approximately 10 days; for Plant response rating, Ryegrass, Italian: 0 to 100 scale (0 no effect, 100 complete control)
# How it was run: as §1
# [11] = system: ragweed (common ragweed, Ambrosia artemisiifolia); assay: Test A preemergence, ragweed; conditions: Preemergence; for Ragweed plant response rating: visual injury on 0 to 100 scale (0 no effect, 100 complete control), approximately 10 days; for Plant response rating, Ragweed: 0 to 100 scale (0 no effect, 100 complete control)
# How it was run: as §1
# [12] = system: wheat (Triticum aestivum); assay: Test A postemergence, wheat; conditions: Postemergence; for Wheat plant response rating: 500 g ai/ha, visual injury vs untreated controls after approx. 10 days
# How it was run: as §2
# [13] = system: galium (catchweed bedstraw, Galium aparine); assay: Test A postemergence, galium; conditions: Postemergence; for Galium plant response rating: 500 g ai/ha, visual injury vs untreated controls after approx. 10 days
# How it was run: as §2
# [14] = system: Ryegrass, Italian (Italian ryegrass, Lolium multiflorum); assay: Test A postemergence, Ryegrass, Italian; conditions: Postemergence; for Ryegrass, Italian plant response rating: 500 g ai/ha, visual injury vs untreated controls after approx. 10 days
# How it was run: as §1
# [15] = system: pigweed (Amaranthus retroflexus); assay: Test A postemergence, pigweed; conditions: Postemergence; for Pigweed plant response rating: 500 g ai/ha, visual injury vs untreated controls after approx. 10 days
# How it was run: as §1
# [16] = 125 g ai/ha, 0 to 100 scale (0 no effect, 100 complete control)
# [17] = 0 to 100 scale (0 no effect, 100 complete control)
# [18] = 125 g ai/ha, visual injury approx. 10 days
# [19] = 31 g ai/ha, visual injury on 0 to 100 scale (0 no effect, 100 complete control), approx. 10 days
# [20] = 125 g ai/ha, visual injury approx. 10 days, 0 to 100 scale (0 no effect, 100 complete control)
# [21] = 31 g ai/ha, visual injury, approx. 10 days
# [22] = 125 g ai/ha, visual injury, approx. 10 days
smiles,measurement,setting,value
COC1CCCN(C(=O)c2cc(NS(=O)(=O)C(F)(F)F)c(C)cc2C)C1 (stereo not shown) [Compound 175],"Plant response rating, Blackgrass",[1]; 125 g ai/ha,0
same,Blackgrass plant response rating,[1],20
same,"Plant response rating, Barnyardgrass",[2]; 125 g ai/ha,20
same,Barnyardgrass plant response rating,[2],90
same,"Plant response rating, Ragweed",[3]; [16],50
same,Ragweed plant response rating,[3]; [17],90
same,"Plant response rating, Corn",corn (Zea mays); [16],0
same,Corn plant response rating,corn (Zea mays); [17],10
same,Pigweed plant response rating,[4]; 125 g ai/ha,90
same,"Plant response rating, Pigweed",[4]; 500 g ai/ha,100
same,"Foxtail, Giant plant response rating",[5]; 125 g ai/ha,100
same,"Plant response rating, Foxtail, Giant",[5]; 500 g ai/ha,100
same,"Plant response rating, Foxtail, Giant",[6]; [16],0
same,"Foxtail, Giant plant response rating",[6]; [17],30
same,Barnyardgrass plant response rating,[7]; 125 g ai/ha,90
same,"Plant response rating, Barnyardgrass",[7]; 500 g ai/ha,100
same,"Plant response rating, Kochia",kochia (Bassia scoparia) [8]; [16],10
same,Kochia plant response rating,kochia (Bassia scoparia) [8]; [17],50
same,Kochia plant response rating,kochia (Bassia scoparia) [9]; 125 g ai/ha,90
same,"Plant response rating, Kochia",kochia (Bassia scoparia) [9]; 500 g ai/ha,100
same,"Ryegrass, Italian plant response rating",[10]; 125 g ai/ha,90
same,"Plant response rating, Ryegrass, Italian",[10]; 500 g ai/ha,100
same,Ragweed plant response rating,[11]; 125 g ai/ha,80
same,"Plant response rating, Ragweed",[11]; 500 g ai/ha,100
same,"Plant response rating, Wheat",[12]; [16],10
same,Wheat plant response rating,[12]; [17],80
same,"Plant response rating, Galium",[13]; [16],80
same,Galium plant response rating,[13]; [17],90
same,"Plant response rating, Ryegrass, Italian",[14]; [16],30
same,"Ryegrass, Italian plant response rating",[14]; [17],80
same,"Plant response rating, Pigweed",[15]; [16],50
same,Pigweed plant response rating,[15]; [17],90
CCCCC(=O)OCN(c1cc(C2=NOC3(CCCC3)C2)c(C)cc1C)S(=O)(=O)C(F)(F)F [Compound 143],"Plant response rating, Blackgrass",[1]; 31 g ai/ha,60
same,"Plant response rating, Blackgrass",[1]; [18],0
same,"Plant response rating, Barnyardgrass",[2]; 31 g ai/ha,0
same,"Plant response rating, Barnyardgrass",[2]; [18],50
same,"Plant response rating, Ragweed",[3]; [19],0
same,"Plant response rating, Ragweed",[3]; [16],10
same,"Plant response rating, Corn",corn (Zea mays); [19],0
same,"Plant response rating, Corn",corn (Zea mays); [20],20
same,"Plant response rating, Pigweed",[4]; [21],60
same,Pigweed plant response rating,[4]; 125 g ai/ha,100
same,"Plant response rating, Foxtail, Giant",[5]; [21],50
same,"Foxtail, Giant plant response rating",[5]; 125 g ai/ha,100
same,"Plant response rating, Foxtail, Giant",[6]; [19],0
same,"Plant response rating, Foxtail, Giant",[6]; [20],30
same,"Plant response rating, Barnyardgrass",[7]; [21],80
same,Barnyardgrass plant response rating,[7]; 125 g ai/ha,90
same,"Plant response rating, Kochia",kochia (Bassia scoparia) [8]; [19],10
same,"Plant response rating, Kochia",kochia (Bassia scoparia) [8]; [20],20
same,"Plant response rating, Kochia",kochia (Bassia scoparia) [9]; [21],0
same,Kochia plant response rating,kochia (Bassia scoparia) [9]; 125 g ai/ha,20
same,"Plant response rating, Ryegrass, Italian",[10]; [21],90
same,"Ryegrass, Italian plant response rating",[10]; 125 g ai/ha,90
same,"Plant response rating, Ragweed",[11]; [21],0
same,Ragweed plant response rating,[11]; 125 g ai/ha,0
same,"Plant response rating, Wheat",[12]; [19],20
same,"Plant response rating, Wheat",[12]; [16],50
same,"Plant response rating, Galium",[13]; [19],50
same,"Plant response rating, Galium",[13]; [20],40
same,"Plant response rating, Ryegrass, Italian",[14]; [19],0
same,"Plant response rating, Ryegrass, Italian",[14]; [16],20
same,"Plant response rating, Pigweed",[15]; [19],20
same,"Plant response rating, Pigweed",[15]; [16],40
Cc1cc(C)c(-n2nccc(C)c2=O)cc1NS(=O)(=O)C(F)(F)F [Compound 84],Blackgrass plant response rating,[1],20
same,Barnyardgrass plant response rating,[2],80
same,Ragweed plant response rating,[3]; [17],40
same,Corn plant response rating,corn (Zea mays); [17],60
same,"Plant response rating, Pigweed",[4]; 500 g ai/ha,70
same,"Plant response rating, Foxtail, Giant",[5]; 500 g ai/ha,90
same,"Foxtail, Giant plant response rating",[6]; [17],50
same,"Plant response rating, Barnyardgrass",[7]; 500 g ai/ha,80
same,Kochia plant response rating,kochia (Bassia scoparia) [8]; [17],0
same,"Plant response rating, Kochia",kochia (Bassia scoparia) [9]; 500 g ai/ha,70
same,"Plant response rating, Ryegrass, Italian",[10]; 500 g ai/ha,90
same,"Plant response rating, Ragweed",[11]; 500 g ai/ha,0
same,Wheat plant response rating,[12]; [17],70
same,Galium plant response rating,[13]; [17],50
same,"Ryegrass, Italian plant response rating",[14]; [17],50
same,Pigweed plant response rating,[15]; [17],30
Cc1cc(F)c(C(=O)N2CCC(C#N)CC2)cc1N(S(=O)(=O)C(F)(F)F)S(=O)(=O)C(F)(F)F [Compound 239],"Plant response rating, Blackgrass",[1]; 125 g ai/ha,0
same,Blackgrass plant response rating,[1],0
same,"Plant response rating, Barnyardgrass",[2]; 125 g ai/ha,0
same,Barnyardgrass plant response rating,[2],0
same,"Plant response rating, Ragweed",[3]; [16],0
same,Ragweed plant response rating,[3]; [17],0
same,"Plant response rating, Corn",corn (Zea mays); [16],0
same,Corn plant response rating,corn (Zea mays); [17],10
same,"Plant response rating, Pigweed",[4]; [22],60
same,Pigweed plant response rating,[4]; 500 g ai/ha,90
same,"Plant response rating, Foxtail, Giant",[5]; [22],20
same,"Foxtail, Giant plant response rating",[5]; 500 g ai/ha,60
same,"Plant response rating, Foxtail, Giant",[6]; [16],0
same,"Foxtail, Giant plant response rating",[6]; [17],30
same,"Plant response rating, Barnyardgrass",[7]; [22],0
same,"Plant response rating, Barnyardgrass",[7]; 500 g ai/ha,20
same,"Plant response rating, Kochia",kochia (Bassia scoparia) [8]; [16],0
same,Kochia plant response rating,kochia (Bassia scoparia) [8]; [17],10
same,"Plant response rating, Kochia",kochia (Bassia scoparia) [9]; [22],30
same,Kochia plant response rating,kochia (Bassia scoparia) [9]; 500 g ai/ha,80
same,"Plant response rating, Ryegrass, Italian",[10]; [22],0
same,"Ryegrass, Italian plant response rating",[10]; 500 g ai/ha,30
same,"Plant response rating, Ragweed",[11]; [22],20
same,Ragweed plant response rating,[11]; 500 g ai/ha,70
same,"Plant response rating, Wheat",[12]; [16],0
same,Wheat plant response rating,[12]; [17],0
same,"Plant response rating, Galium",[13]; [16],0
same,Galium plant response rating,[13]; [17],40
same,"Plant response rating, Ryegrass, Italian",[14]; [16],0
same,"Ryegrass, Italian plant response rating",[14]; [17],0
same,"Plant response rating, Pigweed",[15]; [16],20
same,Pigweed plant response rating,[15]; [17],50
